Reference: PubChem BioAssay AID1963847 (Molecular Pharmacology Branch, DTP, NCI, 2024)

System: 415267-285-R-J2-PDC complex spheroid viability
Assay: Anticancer human tumor 415267-285-R-J2-PDC patient-derived breast carcinoma cell line growth inhibition [POLQ]
Settings: for IC50: curve of first compound; for viability, T/C: stronger effect = lower value
Experimental: Multicellular complex tumor spheroid response to Polymerase (POL) inhibitors (novobiocin, ART-558, RP6685) in combination with a variety of drugs and investigational agents in selected tumor cell lines
The POL inhibitors (novobiocin, ART-558, and RP6685) were evaluated both individually and in combination with standard of care and investigational anticancer small molecules within a complex spheroid model of solid tumors. . Complex spheroids include a stromal component modeled by human endothelial cells (HUVEC) and fibroblasts modeled by human mesenchymal stem cells (MSCs). The concentration ranges selected for each drug and investigational agent were based upon clinically achievable concentrations if the clinical Cmax of the agent was known.
Compounds. The drugs and investigational agents: novobiocin (NSC847541), ART-558 (NSC835418), RP-6685 (NSC848927), peposertib (NSC802822), ceralasertib (NSC780249), elimusertib (NSC800525), camonsertib (NSC841442), AZD-1390 (NSC803789), olaparib (NSC753686), talazoparib (NSC767125), rucaparib (NSC756644), sotorasib (NSC818433), MRTX-1133 (NSC836407), SN-38 (NSC673596), topotecan (NSC609699), epotoside (NSC141540), doxorubicin (NSC123127), gemcitabine (NSC613327), 5-fluorouracil (NSC19893), paclitaxel (NSC125973), vemurafenib (NSC761431), MSA-2 (NSC828583), SN-011 (NSC837082), adavosertib (NSC754352), prexasertib (NSC758257), carboplatin (NSC241240) and oxaliplatin (NSC266046), were obtained from the National Cancer Institute (NCI) Developmental Therapeutics Program Chemical Repository (21). The FDA-approved anticancer drug set is available from the Developmental Therapeutics Program at https://dtp.cancer.gov/organization/dscb/obtaining/. […] The stock solutions were prepared in dimethyl sulfoxide (DMSO, Sigma-Aldrich, St. Louis, MO, cat. D2650), except for the platinum compounds which were prepared in saline (Quality Biological, Gaithersburg, MD, cat. 114-055-101), at 800-fold the tested concentration and stored at -70 degrees C prior to their use. All drugs and investigational agents were tested over a range starting from a high concentration at or near the clinical Cmax and decreasing in half-log increments. If the clinical Cmax for an agent had not been determined, the highest concentration tested was 10 microM, except for SN-38, which was tested at a high concentration of 1 microM.
Cell Culture. All cells were maintained in an incubator at 37 degrees C and 5% CO2 with 95% humidity. The PDC lines were cultured according to standard operating procedures established by the NCI PDMR (https://pdmr.cancer.gov). Table 3 of the manuscript, lists the cell lines along with the number of the three cell types plated to form the mct-spheroids and media for tumor cell growth. After thawing, all PDC lines, except 997537-175-T-J1-PDC and 415267-285-R-J2-PDC, were cultured in Matrigel-coated flasks prepared with a working solution of 1X Ham's F-12 nutrient mix, without supplementation (Thermo Fisher Scientific, cat. 11765054), 100 U/mL penicillin-streptomycin (Thermo Fisher Scientific, cat. 15140122), and 2.5% Matrigel (Corning Inc., Corning, NY, cat. 354248) for the first three passages. The two PDC lines 997537-175-T-J1-PDC and 415267-285-R-J2-PDC were cultured on uncoated flasks. The 857933-349-R-J2-PDC line was cultured in 6C/Colon 1B media containing advanced DMEM/F-12 (Thermo Fisher Scientific, cat. 12634028), 10 mM HEPES (Thermo Fisher Scientific, cat. 15630080), 1X GlutaMAX supplement (Thermo Fisher Scientific, cat. 35050061), 0.1 mg/mL primocin (InvivoGen, San Diego, CA, cat. ant-pm-2), 10% defined fetal bovine serum, heat inactivated (HyClone Laboratories Inc., Logan, UT, cat. SH30070.03HI), 50% L-WRN conditioned media (ATCC, cat. CRL-3276), 1.25 mM N-Acetyl-L-cysteine (Sigma-Aldrich, cat. A9165), 10 mM nicotinamide (Sigma-Aldrich, cat. N0636), 1X B-27 supplement (Thermo Fisher Scientific, cat. 17504044), 1X N-2 supplement (Thermo Fisher Scientific, cat. […]

[1] = second compound 0.0316 µM, first compound 0.0316 µM
[2] = second compound 0.0316 µM, first compound 0.1 µM
[3] = second compound 0.0316 µM, first compound 0.316 µM
[4] = second compound 0.0316 µM, first compound 1 µM
[5] = second compound 0.0316 µM, first compound 3.16 µM
[6] = second compound 0.0316 µM, first compound 10 µM
[7] = second compound 0.1 µM, first compound 0.0316 µM
[8] = second compound 0.1 µM, first compound 0.1 µM
[9] = second compound 0.1 µM, first compound 0.316 µM
[10] = second compound 0.1 µM, first compound 1 µM
[11] = second compound 0.1 µM, first compound 3.16 µM
[12] = second compound 0.1 µM, first compound 10 µM
[13] = second compound 0.316 µM, first compound 0.0316 µM
[14] = second compound 0.316 µM, first compound 0.1 µM
[15] = second compound 0.316 µM, first compound 0.316 µM
[16] = second compound 0.316 µM, first compound 1 µM
[17] = second compound 0.316 µM, first compound 3.16 µM
[18] = second compound 0.316 µM, first compound 10 µM
[19] = second compound 1 µM, first compound 0.0316 µM
[20] = second compound 1 µM, first compound 0.1 µM
[21] = second compound 1 µM, first compound 0.316 µM
[22] = second compound 1 µM, first compound 1 µM
[23] = second compound 1 µM, first compound 3.16 µM
[24] = second compound 1 µM, first compound 10 µM
[25] = second compound 3.16 µM, first compound 0.0316 µM
[26] = second compound 3.16 µM, first compound 0.1 µM
[27] = second compound 3.16 µM, first compound 0.316 µM
[28] = second compound 3.16 µM, first compound 1 µM
[29] = second compound 3.16 µM, first compound 3.16 µM
[30] = second compound 3.16 µM, first compound 10 µM
[31] = second compound 10 µM, first compound 0.0316 µM
[32] = second compound 10 µM, first compound 0.1 µM
[33] = second compound 10 µM, first compound 0.316 µM
[34] = second compound 10 µM, first compound 1 µM
[35] = second compound 10 µM, first compound 3.16 µM
[36] = second compound 10 µM, first compound 10 µM
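Also: spheroids exposed to compounds for one week before readout.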
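For viability, T/C in this document: luminescence used as stand-in measure of viable cells; 100% = DMSO vehicle control viability.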

## CC1COCCN1c1cc(-c2ccnn2C)c2ccnc(-c3ccn[nH]3)c2n1 (centres undefined) + COC1C(OC(N)=O)C(O)C(Oc2ccc3c(O)c(NC(=O)c4ccc(O)c(CC=C(C)C)c4)c(=O)oc3c2C)OC1(C)C
Second compound 0.0316 µM
  IC50: < 31.6 nM
Second compound 0.1 µM
  IC50: 36.3 nM
Second compound 0.316 µM
  IC50: < 31.6 nM
Second compound 1 µM
  IC50: 39 nM
Second compound 3.16 µM
  IC50: 35.4 nM
Second compound 10 µM
  IC50: 41.2 nM
[1]
  viability, T/C: 47%
[2]
  viability, T/C: 12.6%
[3]
  viability, T/C: 6.23%
[4]
  viability, T/C: 5.27%
[5]
  viability, T/C: 4.48%
[6]
  viability, T/C: 3.41%
[7]
  viability, T/C: 55.3%
[8]
  viability, T/C: 11.5%
[9]
  viability, T/C: 6.16%
[10]
  viability, T/C: 3.96%
[11]
  viability, T/C: 4.03%
[12]
  viability, T/C: 4.38%
[13]
  viability, T/C: 48.4%
[14]
  viability, T/C: 11.8%
[15]
  viability, T/C: 5.97%
[16]
  viability, T/C: 5.08%
[17]
  viability, T/C: 4.16%
[18]
  viability, T/C: 5.11%
[19]
  viability, T/C: 58.5%
[20]
  viability, T/C: 11.5%
[21]
  viability, T/C: 5.09%
[22]
  viability, T/C: 6.05%
[23]
  viability, T/C: 4.42%
[24]
  viability, T/C: 4.44%
[25]
  viability, T/C: 53.9%
[26]
  viability, T/C: 15.8%
[27]
  viability, T/C: 7.15%
[28]
  viability, T/C: 5.85%
[29]
  viability, T/C: 4.13%
[30]
  viability, T/C: 4.16%
[31]
  viability, T/C: 61.3%
[32]
  viability, T/C: 12.8%
[33]
  viability, T/C: 6.51%
[34]
  viability, T/C: 4.55%
[35]
  viability, T/C: 4.33%
[36]
  viability, T/C: 4.73%

## CCc1cc2c(N3CCc4c(cc(Cn5ccnc5)cc4-c4cn(C)nc4C(F)(F)F)C3=O)cc(C)nc2c(OC)n1 + Nc1ccc(C#CCN(C(=O)Cc2ncc(C(F)(F)F)cc2C(F)(F)F)c2ccc(F)cc2)nn1
Second compound 0.0316 µM
  IC50: > 10000 nM
Second compound 0.1 µM
  IC50: > 10000 nM
Second compound 0.316 µM
  IC50: > 10000 nM
Second compound 1 µM
  IC50: > 10000 nM
Second compound 3.16 µM
  IC50: > 10000 nM
Second compound 10 µM
  IC50: > 10000 nM
[1]
  viability, T/C: 91.4%
[2]
  viability, T/C: 91.6%
[3]
  viability, T/C: 88.7%
[4]
  viability, T/C: 85.9%
[5]
  viability, T/C: 82.5%
[6]
  viability, T/C: 66.7%
[7]
  viability, T/C: 99.5%
[8]
  viability, T/C: 87.1%
[9]
  viability, T/C: 80.8%
[10]
  viability, T/C: 94.8%
[11]
  viability, T/C: 88.1%
[12]
  viability, T/C: 66.8%
[13]
  viability, T/C: 91.7%
[14]
  viability, T/C: 88.8%
[15]
  viability, T/C: 98.4%
[16]
  viability, T/C: 93.2%
[17]
  viability, T/C: 80%
[18]
  viability, T/C: 68.1%
[19]
  viability, T/C: 86%
[20]
  viability, T/C: 94.7%
[21]
  viability, T/C: 101%
[22]
  viability, T/C: 94.9%
[23]
  viability, T/C: 84%
[24]
  viability, T/C: 64.1%
[25]
  viability, T/C: 97.6%
[26]
  viability, T/C: 87.9%
[27]
  viability, T/C: 86.5%
[28]
  viability, T/C: 104%
[29]
  viability, T/C: 86.6%
[30]
  viability, T/C: 70.8%
[31]
  viability, T/C: 98.9%
[32]
  viability, T/C: 79.9%
[33]
  viability, T/C: 97.4%
[34]
  viability, T/C: 82.2%
[35]
  viability, T/C: 79.1%
[36]
  viability, T/C: 65.1%
